Data as given in ChEMBL document CHEMBL4602710 (ACS Med Chem Lett, 2020).
Values after ≈ are worked out from the molar mass of the structure shown.

Columns and labels:
[1] = target: T1, Tyrosine-protein kinase SYK (Homo sapiens, UniProt P43405); experiment: Inhibition of SYK (unknown origin) using XL665-labeled peptide as substrate in presence of ATP measured after 30 mins by TR-FRET assay
[2] = target: T1, Tyrosine-protein kinase SYK; experiment: Inhibition of SYK in human Ramos cells assessed as reduction in antihuman IgM F(ab)2-induced phosphorylation of BLNK at Y96 residue preincubated for 1 hr followed by antihuman IgM F(ab)2 stimulation for 5 mins by MSD high bind plate assay; format: cell-based
[3] = target: T1, Tyrosine-protein kinase SYK; experiment: Inhibition of SYK in human whole blood assessed as reduction in anti-FCepsilonR1 mAb-induced basophil activation by measuring decrease in CD63 surface expression incubated for 60 mins followed by anti-FCepsilonR1 mAb stimulation for 20 mins by flow cytometry analysis; format: tissue-based
[4] = Solubility of compound at pH 7.4; format: physicochemical; conditions: buffer
[5] = Solubility of compound at pH 2; format: physicochemical; conditions: buffer
[6] = Clearance in human liver microsomes; format: ADME, Microsome
[7] = Oral bioavailability in rat at 5 mg/kg; format: ADME, organism-based; conditions: in vivo
[8] = Distribution coefficient, logD of compound; format: physicochemical; conditions: octanol/water
[9] = Apparent permeability of compound in human Caco2 cells; format: ADME, cell-based; conditions: Caco-2
[10] = Efflux ratio of apparent permeability of compound in human Caco2 cells; format: ADME, cell-based; conditions: Caco-2

SMILES	IC50 [1] [nM]	EC50 [2] [nM]	EC50 [3] [nM]	solubility [4] [µM]	solubility [5] [µM]	CLhep predicted [6] [mL/min/kg]	bioavailability [7] [%]	logD [8]	Papp [9] [×10⁻⁶ cm/s]	efflux ratio [10]
O=S1(=O)CCN(c2ccc(Nc3nc(-c4ccc5cn[nH]c5c4)cn4ccnc34)cc2)CC1	19.5	33	1190	3 (≈ 1.38 µg/mL)	26 (≈ 11.9 µg/mL)	8.17		1.9 to 2.7		
c1cn2cc(-c3ccc4cn[nH]c4c3)nc(Nc3ccc(N4[C@H]5COC[C@@H]4COC5)cc3)c2n1	13.7	33	133	< 1	< 1	9.83		1.9 to 2.7		
c1cn2cc(-c3ccc4c(c3)NCCO4)nc(Nc3ccc(N4CCN(C5COC5)CC4)cc3)c2n1	21.5	46	1230	29 (≈ 14 µg/mL)	> 100	15.2				
Nc1cncc(-c2cn3ccnc3c(Nc3ccc(N4CCN(C5COC5)CC4)cc3)n2)c1	28.6	162	196	87 (≈ 38.5 µg/mL)	98 (≈ 43.4 µg/mL)	4.33				
c1cn2cc(-c3ccc4nc[nH]c4c3)nc(Nc3ccc(N4CCN(C5COC5)CC4)cc3)c2n1	17.3	47	90	49 (≈ 22.9 µg/mL)	> 100	< 1.83			0.4	38
c1cn2cc(-c3ccc4cn[nH]c4c3)nc(Nc3ccc(N4CC5CC(C4)O5)cc3)c2n1	61.6	68	824	2 (≈ 0.847 µg/mL)	25 (≈ 10.6 µg/mL)	5.33		1.9 to 2.7		
c1cn2cc(-c3ccc4c(n3)NCCO4)nc(Nc3ccc(N4CCN(C5COC5)CC4)cc3)c2n1	44.1	107	234	2 (≈ 0.969 µg/mL)	99 (≈ 48 µg/mL)	4.33				
c1cn2cc(-c3ccc4nc[nH]c4n3)nc(Nc3ccc(N4CCN(C5COC5)CC4)cc3)c2n1	31.9	66	89	90 (≈ 42.1 µg/mL)	> 100	2.83				
c1cn2cc(-c3ccc4cn[nH]c4c3)nc(Nc3ccc(N4CCOCC4)cc3)c2n1 [ENTOSPLETINIB]				6 (≈ 2.47 µg/mL)	13 (≈ 5.35 µg/mL)	5.17		2.5		
c1cn2cc(-c3ccc4cc[nH]c4n3)nc(Nc3ccc(N4CCN(C5COC5)CC4)cc3)c2n1	11.3	18	128	< 1	99 (≈ 46.2 µg/mL)	6.33				
Nc1cccc(-c2cn3ccnc3c(Nc3ccc(N4CCN(C5COC5)CC4)cc3)n2)n1	44.3	268	308	52 (≈ 23 µg/mL)	> 100	2.17				
Nc1cccc(-c2cn3ccnc3c(Nc3ccc(N4CCN(C5COC5)CC4)cc3)n2)c1	54.6	220	939	84 (≈ 37.1 µg/mL)	> 100	3.83				
OC1CN(c2ccc(Nc3nc(-c4ccc5cn[nH]c5c4)cn4ccnc34)cc2)C1	11.3	57	723	4 (≈ 1.59 µg/mL)	78 (≈ 31 µg/mL)	12.5		1.9 to 2.7		
c1cn2cc(-c3cnc4nc[nH]c4n3)nc(Nc3ccc(N4CCN(C5COC5)CC4)cc3)c2n1	11.5	192		3 (≈ 1.41 µg/mL)	> 100	2.83				
c1cn2cc(-c3cnc4nc[nH]c4c3)nc(Nc3ccc(N4CCN(C5COC5)CC4)cc3)c2n1	13.4	286	309	< 1	> 100	3			2.7	5.8
c1cn2cc(-c3ccc4cc[nH]c4c3)nc(Nc3ccc(N4CCN(C5COC5)CC4)cc3)c2n1	15.7	26	381	15 (≈ 6.98 µg/mL)	> 100	5.17				

Now from value to molecule:

IC50 [1] [nM]	EC50 [2] [nM]	EC50 [3] [nM]	solubility [4] [µM]	solubility [5] [µM]	CLhep predicted [6] [mL/min/kg]	bioavailability [7] [%]	logD [8]	Papp [9] [×10⁻⁶ cm/s]	efflux ratio [10]	SMILES
8.4	46.8	89	> 100	> 100	4.17	38				c1cn2cc(-c3cnc4c(c3)NCCO4)nc(Nc3ccc(N4CCN(C5COC5)CC4)cc3)c2n1
5.3	162	2330	< 1	24 (≈ 10.5 µg/mL)	9.5		1.9 to 2.7			c1cn2cc(-c3ccc4cn[nH]c4c3)nc(Nc3ccc(N4C[C@H]5CC[C@@H](C4)O5)cc3)c2n1
3.2	37	154	2 (≈ 0.937 µg/mL)	> 100	2.33					c1cn2cc(-c3cnc4cn[nH]c4n3)nc(Nc3ccc(N4CCN(C5COC5)CC4)cc3)c2n1
0.9	23	267	< 1	> 100	8.67		1.9 to 2.7			COCCN1CCN(c2ccc(Nc3nc(-c4ccc5cn[nH]c5c4)cn4ccnc34)cc2)CC1
9.6	187	2210	< 1	24 (≈ 10.5 µg/mL)	4.5		1.9 to 2.7			c1cn2cc(-c3ccc4cn[nH]c4c3)nc(Nc3ccc(N4CC5COCC5C4)cc3)c2n1 (configuration not stated)
0.8	36	456	10 (≈ 4.39 µg/mL)	> 100	3.33		1.9 to 2.7			CCN1CCN(c2ccc(Nc3nc(-c4ccc5cn[nH]c5c4)cn4ccnc34)cc2)CC1
7.8	86	79	99 (≈ 48.1 µg/mL)	> 100	< 1.83	21		11	3	c1cn2cc(-c3cnc4c(n3)NCCO4)nc(Nc3ccc(N4CCN(C5COC5)CC4)cc3)c2n1
9.2	53	385	< 1	> 100	3	42	1.9 to 2.7	5.5	2.9	c1cn2cc(-c3ccc4cn[nH]c4c3)nc(Nc3ccc(N4CCN(C5COC5)CC4)cc3)c2n1
1.7	11	48	5 (≈ 2.34 µg/mL)	> 100	3.33					c1cn2cc(-c3cnc4cc[nH]c4n3)nc(Nc3ccc(N4CCN(C5COC5)CC4)cc3)c2n1
1.2	33	591	3 (≈ 1.28 µg/mL)	84 (≈ 35.7 µg/mL)	4.67		1.9 to 2.7			OC1CCN(c2ccc(Nc3nc(-c4ccc5cn[nH]c5c4)cn4ccnc34)cc2)CC1
5	63	1500	< 1	88 (≈ 37.3 µg/mL)	11		1.9 to 2.7			c1cn2cc(-c3ccc4cn[nH]c4c3)nc(Nc3ccc(N4CC5(COC5)C4)cc3)c2n1
6.9	46	78	1 (≈ 0.467 µg/mL)	> 100	3.83					c1cn2cc(-c3cnc4cc[nH]c4c3)nc(Nc3ccc(N4CCN(C5COC5)CC4)cc3)c2n1
0.9	109	231	78 (≈ 36.5 µg/mL)	90 (≈ 42.2 µg/mL)	3.83	2	1.9 to 2.7	0.5	29	CN(C)C[C@@H]1CN(c2ccc(Nc3nc(-c4ccc5cn[nH]c5c4)cn4ccnc34)cc2)CCO1
1.1	29	501	1.2 (≈ 0.53 µg/mL)	87 (≈ 38.4 µg/mL)	4.33		1.9 to 2.7			OC[C@H]1CN(c2ccc(Nc3nc(-c4ccc5cn[nH]c5c4)cn4ccnc34)cc2)CCO1
2.8	13	47	1 (≈ 0.468 µg/mL)	> 100	3.17					c1cn2cc(-c3cnc4cn[nH]c4c3)nc(Nc3ccc(N4CCN(C5COC5)CC4)cc3)c2n1
6.7	23	86	5 (≈ 2.34 µg/mL)	> 100	4.67					c1cn2cc(-c3ccc4cn[nH]c4n3)nc(Nc3ccc(N4CCN(C5COC5)CC4)cc3)c2n1
5	113	1500	< 1	79 (≈ 33.5 µg/mL)	11		1.9 to 2.7			c1cn2cc(-c3ccc4cn[nH]c4c3)nc(Nc3ccc(N4C[C@@H]5C[C@H]4CO5)cc3)c2n1
4.9	45	885	< 1	86 (≈ 37.8 µg/mL)	2.5		1.9 to 2.7			C[C@@H]1CN(c2ccc(Nc3nc(-c4ccc5cn[nH]c5c4)cn4ccnc34)cc2)C[C@H](C)O1
9	82	2180	3 (≈ 1.35 µg/mL)	77 (≈ 34.8 µg/mL)	4		1.9 to 2.7			c1cn2cc(-c3ccc4cn[nH]c4c3)nc(Nc3ccc(N4CC5(CCOCC5)C4)cc3)c2n1
